Numbers after ± are expanded uncertainties.
How the values were obtained:
[1] = 298.15 K, 101.33 kPa, Liquid; for viscosity: Capillary tube (Ostwald / Ubbelohde) method; for speed of sound: Sing-around technique in a fixed-path interferometer; for mass density: Vibrating tube method
[2] = xn = mol fraction of the nth substance listed; settings: 298.15 K, 101.33 kPa, Liquid; for viscosity: Capillary tube (Ostwald / Ubbelohde) method; for speed of sound: Sing-around technique in a fixed-path interferometer; for mass density: Vibrating tube method

SMILES: CC(=O)CC(C)C [4-methylpentan-2-one]
- viscosity [1]: 0.55 ± 0.015 mPa·s
- speed of sound [1]: 1215 ± 5 m/s
- mass density [1]: 796 ± 2.1 kg/m3

SMILES: Cc1ccc(C)cc1 [1,4-dimethylbenzene]
- viscosity [1]: 0.609 ± 0.016 mPa·s
- speed of sound [1]: 1316 ± 5 m/s
- mass density [1]: 856.1 ± 2.3 kg/m3

SMILES: Cc1ccccc1C [1,2-dimethylbenzene]
- viscosity [1]: 0.769 ± 0.02 mPa·s
- speed of sound [1]: 1349 ± 5 m/s
- mass density [1]: 875.2 ± 2.3 kg/m3

SMILES: Cc1cccc(C)c1 [1,3-dimethylbenzene] + CC(=O)CC(C)C
- viscosity ([2]; x1 = 1): 0.587 ± 0.016 mPa·s
- speed of sound ([2]; x1 = 1): 1323 ± 5 m/s
- mass density ([2]; x1 = 1): 859.4 ± 2.3 kg/m3

SMILES: CC(=O)CC(C)C [4-methylpentan-2-one] + Cc1ccccc1C
- viscosity ([2]; x2 = 0): 0.55 ± 0.015 mPa·s
- viscosity ([2]; x2 = 0.0598): 0.562 ± 0.015 mPa·s
- viscosity ([2]; x2 = 0.1483): 0.577 ± 0.015 mPa·s
- viscosity ([2]; x2 = 0.2932): 0.605 ± 0.016 mPa·s
- viscosity ([2]; x2 = 0.4368): 0.631 ± 0.017 mPa·s
- viscosity ([2]; x2 = 0.582): 0.662 ± 0.018 mPa·s
- viscosity ([2]; x2 = 0.7227): 0.694 ± 0.018 mPa·s
- viscosity ([2]; x2 = 0.8635): 0.73 ± 0.019 mPa·s
- viscosity ([2]; x2 = 0.9457): 0.751 ± 0.02 mPa·s
- speed of sound ([2]; x2 = 0): 1215 ± 5 m/s
- speed of sound ([2]; x2 = 0.0598): 1214 ± 5 m/s
- speed of sound ([2]; x2 = 0.1483): 1220 ± 5 m/s
- speed of sound ([2]; x2 = 0.2932): 1237 ± 5 m/s
- speed of sound ([2]; x2 = 0.4368): 1263 ± 5 m/s
- speed of sound ([2]; x2 = 0.582): 1294 ± 5 m/s
- speed of sound ([2]; x2 = 0.7227): 1318 ± 5 m/s
- speed of sound ([2]; x2 = 0.8635): 1336 ± 5 m/s
- speed of sound ([2]; x2 = 0.9457): 1345 ± 5 m/s
- mass density ([2]; x2 = 0): 796 ± 2.1 kg/m3
- mass density ([2]; x2 = 0.0598): 801.3 ± 2.1 kg/m3
- mass density ([2]; x2 = 0.1483): 808.9 ± 2.1 kg/m3
- mass density ([2]; x2 = 0.2932): 820.7 ± 2.2 kg/m3
- mass density ([2]; x2 = 0.4368): 832.2 ± 2.2 kg/m3
- mass density ([2]; x2 = 0.582): 843.4 ± 2.2 kg/m3
- mass density ([2]; x2 = 0.7227): 854.5 ± 2.3 kg/m3
- mass density ([2]; x2 = 0.8635): 865.1 ± 2.3 kg/m3
- mass density ([2]; x2 = 0.9457): 871.2 ± 2.3 kg/m3

SMILES: CC(=O)CC(C)C [4-methylpentan-2-one] + CC(C)c1ccccc1
- viscosity ([2]; x2 = 0): 0.55 ± 0.015 mPa·s
- speed of sound ([2]; x2 = 0): 1215 ± 5 m/s
- mass density ([2]; x2 = 0): 796 ± 2.1 kg/m3

SMILES: CC(C)c1ccccc1 [isopropylbenzene] + CC(=O)CC(C)C
- viscosity ([2]; x1 = 0.0518): 0.563 ± 0.015 mPa·s
- viscosity ([2]; x1 = 0.1305): 0.579 ± 0.015 mPa·s
- viscosity ([2]; x1 = 0.2631): 0.6 ± 0.016 mPa·s
- viscosity ([2]; x1 = 0.4022): 0.621 ± 0.016 mPa·s
- viscosity ([2]; x1 = 0.5439): 0.645 ± 0.017 mPa·s
- viscosity ([2]; x1 = 0.6917): 0.672 ± 0.018 mPa·s
- viscosity ([2]; x1 = 0.842): 0.704 ± 0.019 mPa·s
- viscosity ([2]; x1 = 0.9355): 0.725 ± 0.019 mPa·s
- viscosity ([2]; x1 = 1): 0.739 ± 0.02 mPa·s
- speed of sound ([2]; x1 = 0.0518): 1227 ± 5 m/s
- speed of sound ([2]; x1 = 0.1305): 1231 ± 5 m/s
- speed of sound ([2]; x1 = 0.2631): 1234 ± 5 m/s
- speed of sound ([2]; x1 = 0.4022): 1246 ± 5 m/s
- speed of sound ([2]; x1 = 0.5439): 1262 ± 5 m/s
- speed of sound ([2]; x1 = 0.6917): 1282 ± 5 m/s
- speed of sound ([2]; x1 = 0.842): 1309 ± 5 m/s
- speed of sound ([2]; x1 = 0.9355): 1325 ± 5 m/s
- speed of sound ([2]; x1 = 1): 1338 ± 5 m/s
- mass density ([2]; x1 = 0.0518): 799.4 ± 2.1 kg/m3
- mass density ([2]; x1 = 0.1305): 804.6 ± 2.1 kg/m3
- mass density ([2]; x1 = 0.2631): 813.4 ± 2.1 kg/m3
- mass density ([2]; x1 = 0.4022): 822.6 ± 2.2 kg/m3
- mass density ([2]; x1 = 0.5439): 831.5 ± 2.2 kg/m3
- mass density ([2]; x1 = 0.6917): 840.3 ± 2.2 kg/m3
- mass density ([2]; x1 = 0.842): 848.7 ± 2.2 kg/m3
- mass density ([2]; x1 = 0.9355): 853.7 ± 2.3 kg/m3
- mass density ([2]; x1 = 1): 857.1 ± 2.3 kg/m3

SMILES: Cc1ccc(C)cc1 [1,4-dimethylbenzene] + CC(=O)CC(C)C
- viscosity ([2]; x1 = 1): 0.609 ± 0.016 mPa·s
- speed of sound ([2]; x1 = 1): 1316 ± 5 m/s
- mass density ([2]; x1 = 1): 856.1 ± 2.3 kg/m3

SMILES: CC(=O)CC(C)C [4-methylpentan-2-one] + Cc1ccc(C)cc1
- viscosity ([2]; x2 = 0): 0.55 ± 0.015 mPa·s
- viscosity ([2]; x2 = 0.059): 0.553 ± 0.015 mPa·s
- viscosity ([2]; x2 = 0.1454): 0.556 ± 0.015 mPa·s
- viscosity ([2]; x2 = 0.2887): 0.562 ± 0.015 mPa·s
- viscosity ([2]; x2 = 0.4325): 0.567 ± 0.015 mPa·s
- viscosity ([2]; x2 = 0.5735): 0.572 ± 0.015 mPa·s
- viscosity ([2]; x2 = 0.7166): 0.579 ± 0.015 mPa·s
- viscosity ([2]; x2 = 0.8587): 0.591 ± 0.016 mPa·s
- viscosity ([2]; x2 = 0.9419): 0.6 ± 0.016 mPa·s
- speed of sound ([2]; x2 = 0): 1215 ± 5 m/s
- speed of sound ([2]; x2 = 0.059): 1215 ± 5 m/s
- speed of sound ([2]; x2 = 0.1454): 1226 ± 5 m/s
- speed of sound ([2]; x2 = 0.2887): 1248 ± 5 m/s
- speed of sound ([2]; x2 = 0.4325): 1267 ± 5 m/s
- speed of sound ([2]; x2 = 0.5735): 1284 ± 5 m/s
- speed of sound ([2]; x2 = 0.7166): 1300 ± 5 m/s
- speed of sound ([2]; x2 = 0.8587): 1311 ± 5 m/s
- speed of sound ([2]; x2 = 0.9419): 1315 ± 5 m/s
- mass density ([2]; x2 = 0): 796 ± 2.1 kg/m3
- mass density ([2]; x2 = 0.059): 800.1 ± 2.1 kg/m3
- mass density ([2]; x2 = 0.1454): 805.8 ± 2.1 kg/m3
- mass density ([2]; x2 = 0.2887): 814.9 ± 2.1 kg/m3
- mass density ([2]; x2 = 0.4325): 823.6 ± 2.2 kg/m3
- mass density ([2]; x2 = 0.5735): 832.2 ± 2.2 kg/m3
- mass density ([2]; x2 = 0.7166): 840.5 ± 2.2 kg/m3
- mass density ([2]; x2 = 0.8587): 848.4 ± 2.2 kg/m3
- mass density ([2]; x2 = 0.9419): 853 ± 2.2 kg/m3

SMILES: CC(=O)CC(C)C [4-methylpentan-2-one] + Cc1cccc(C)c1
- viscosity ([2]; x2 = 0): 0.55 ± 0.015 mPa·s
- viscosity ([2]; x2 = 0.0586): 0.554 ± 0.015 mPa·s
- viscosity ([2]; x2 = 0.1483): 0.558 ± 0.015 mPa·s
- viscosity ([2]; x2 = 0.2898): 0.564 ± 0.015 mPa·s
- viscosity ([2]; x2 = 0.4312): 0.567 ± 0.015 mPa·s
- viscosity ([2]; x2 = 0.5762): 0.569 ± 0.015 mPa·s
- viscosity ([2]; x2 = 0.7187): 0.572 ± 0.015 mPa·s
- viscosity ([2]; x2 = 0.8591): 0.577 ± 0.015 mPa·s
- viscosity ([2]; x2 = 0.9429): 0.582 ± 0.015 mPa·s
- speed of sound ([2]; x2 = 0): 1215 ± 5 m/s
- speed of sound ([2]; x2 = 0.0586): 1207 ± 5 m/s
- speed of sound ([2]; x2 = 0.1483): 1212 ± 5 m/s
- speed of sound ([2]; x2 = 0.2898): 1233 ± 5 m/s
- speed of sound ([2]; x2 = 0.4312): 1257 ± 5 m/s
- speed of sound ([2]; x2 = 0.5762): 1280 ± 5 m/s
- speed of sound ([2]; x2 = 0.7187): 1299 ± 5 m/s
- speed of sound ([2]; x2 = 0.8591): 1314 ± 5 m/s
- speed of sound ([2]; x2 = 0.9429): 1321 ± 5 m/s
- mass density ([2]; x2 = 0): 796 ± 2.1 kg/m3
- mass density ([2]; x2 = 0.0586): 801.4 ± 2.1 kg/m3
- mass density ([2]; x2 = 0.1483): 809.5 ± 2.1 kg/m3
- mass density ([2]; x2 = 0.2898): 821.2 ± 2.2 kg/m3
- mass density ([2]; x2 = 0.4312): 830.5 ± 2.2 kg/m3
- mass density ([2]; x2 = 0.5762): 837.4 ± 2.2 kg/m3
- mass density ([2]; x2 = 0.7187): 842.8 ± 2.2 kg/m3
- mass density ([2]; x2 = 0.8591): 849 ± 2.2 kg/m3
- mass density ([2]; x2 = 0.9429): 854.4 ± 2.3 kg/m3

SMILES: Cc1ccccc1C [1,2-dimethylbenzene] + CC(=O)CC(C)C
- viscosity ([2]; x1 = 1): 0.769 ± 0.02 mPa·s
- speed of sound ([2]; x1 = 1): 1349 ± 5 m/s
- mass density ([2]; x1 = 1): 875.2 ± 2.3 kg/m3

SMILES: Cc1cccc(C)c1 [1,3-dimethylbenzene]
- viscosity [1]: 0.587 ± 0.016 mPa·s
- speed of sound [1]: 1323 ± 5 m/s
- mass density [1]: 859.4 ± 2.3 kg/m3

SMILES: CC(C)c1ccccc1 [isopropylbenzene]
- viscosity [1]: 0.739 ± 0.02 mPa·s
- speed of sound [1]: 1338 ± 5 m/s
- mass density [1]: 857.1 ± 2.3 kg/m3

— the NIST ThermoML archive (doi:10.1021/je049899g)
